In ChEMBL document CHEMBL3885881, “DrugMatrix”:

Species on record: Rattus norvegicus
Assay: DrugMatrix - Regimen: Daily Repeat
Assay type: toxicity, organism-based, Sprague-Dawley
Design: regimen Daily Repeat, gender Male, age 6-8 weeks
Settings: in vivo, po, route oral GAVAGE, vehicle 100 % WATER; for ABSOLUTE BASOPHIL / ABSOLUTE EOSINOPHIL / ABSOLUTE LYMPHOCYTE / ABSOLUTE MONOCYTE / ABSOLUTE SEGMENTED NEUTROPHIL / BASOPHIL / EOSINOPHIL / ERYTHROCYTE COUNT / HEMATOCRIT / HEMOGLOBIN / LEUKOCYTE COUNT / LYMPHOCYTE / MEAN CORPUSCULAR HEMOGLOBIN / MEAN CORPUSCULAR HEMOGLOBIN CONCENTRATION / MEAN CORPUSCULAR VOLUME / MONOCYTE / NEUTROPHIL / NUCLEATED RED BLOOD CELLS / PLATELET COUNT: tissue Blood; for ALANINE AMINOTRANSFERASE / ALBUMIN / ALKALINE PHOSPHATASE / ASPARTATE AMINOTRANSFERASE / BLOOD UREA NITROGEN / CARBON DIOXIDE / CHLORIDE / CHOLESTEROL / CREATINE PHOSPHOKINASE / CREATININE / GLUCOSE / LACTATE DEHYDROGENASE / LIPASE / PHOSPHORUS / POTASSIUM / SODIUM / TOTAL BILIRUBIN / TOTAL PROTEIN / URIC ACID: tissue Plasma
[1] = 2 mg/kg, 120 h, dose level Low, time 5 day
[2] = 2000 mg/kg, 72 h, dose level High, time 3 day
[3] = 2000 mg/kg, 120 h, dose level High, time 5 day

CC(C)(C)c1ccc(C(=O)CCCN2CCC(OC(c3ccccc3)c3ccccc3)CC2)cc1 [EBASTINE]
ABSOLUTE BASOPHIL [1]: 0 CELLS/uL
ABSOLUTE EOSINOPHIL [1]: 268.33 CELLS/uL
ABSOLUTE LYMPHOCYTE [1]: 11875.67 CELLS/uL
ABSOLUTE MONOCYTE [1]: 285.33 CELLS/uL
ABSOLUTE SEGMENTED NEUTROPHIL [1]: 1837.33 CELLS/uL
BASOPHIL [1]: 0%
EOSINOPHIL [1]: 1.67%
ERYTHROCYTE COUNT [1]: 5.47 x10E6/uL
HEMATOCRIT [1]: 34.03%
HEMOGLOBIN [1]: 13.83 G/DL
LEUKOCYTE COUNT [1]: 14.27 x10E3/uL
LYMPHOCYTE [1]: 83.33%
MEAN CORPUSCULAR HEMOGLOBIN [1]: 25.3 pg
MEAN CORPUSCULAR HEMOGLOBIN CONCENTRATION [1]: 40.67 G/DL
MEAN CORPUSCULAR VOLUME [1]: 62.27 fL
MONOCYTE [1]: 2%
NEUTROPHIL [1]: 13%
NUCLEATED RED BLOOD CELLS [1]: 0 /100WBC
PLATELET COUNT [1]: 1267.33 x10E3/uL
ALANINE AMINOTRANSFERASE [1]: 45.33 u/L
ALBUMIN [1]: 4.3 G/DL
ALKALINE PHOSPHATASE [1]: 377.33 u/L
ASPARTATE AMINOTRANSFERASE [1]: 74 u/L
BLOOD UREA NITROGEN [1]: 15.67 mg/dL
CARBON DIOXIDE [1]: 27.33 mmol/L
CHLORIDE [1]: 101 MEQ/L
CHOLESTEROL [1]: 75 mg/dL
CREATINE PHOSPHOKINASE [1]: 212.67 u/L
CREATININE [1]: 0.24 mg/dL
GLUCOSE [1]: 160.33 mg/dL
LACTATE DEHYDROGENASE [1]: 207.67 u/L
LIPASE [1]: 10 u/L
PHOSPHORUS [1]: 12.17 mg/dL
POTASSIUM [1]: 6.8 MEQ/L
SODIUM [1]: 140.47 MEQ/L
TOTAL BILIRUBIN [1]: 0.2 mg/dL
TOTAL PROTEIN [1]: 5.9 G/DL
URIC ACID [1]: 1.87 mg/dL
ABSOLUTE BASOPHIL [2]: 0 CELLS/uL
ABSOLUTE EOSINOPHIL [2]: 34.67 CELLS/uL
ABSOLUTE LYMPHOCYTE [2]: 11326.67 CELLS/uL
ABSOLUTE MONOCYTE [2]: 253 CELLS/uL
ABSOLUTE SEGMENTED NEUTROPHIL [2]: 2019 CELLS/uL
BASOPHIL [2]: 0%
EOSINOPHIL [2]: 0.33%
ERYTHROCYTE COUNT [2]: 6 x10E6/uL
HEMATOCRIT [2]: 36.1%
HEMOGLOBIN [2]: 14.77 G/DL
LEUKOCYTE COUNT [2]: 13.63 x10E3/uL
LYMPHOCYTE [2]: 83%
MEAN CORPUSCULAR HEMOGLOBIN [2]: 24.63 pg
MEAN CORPUSCULAR HEMOGLOBIN CONCENTRATION [2]: 40.9 G/DL
MEAN CORPUSCULAR VOLUME [2]: 60.27 fL
MONOCYTE [2]: 1.67%
NEUTROPHIL [2]: 15%
NUCLEATED RED BLOOD CELLS [2]: 0.33 /100WBC
PLATELET COUNT [2]: 1204 x10E3/uL
ALANINE AMINOTRANSFERASE [2]: 96.33 u/L
ALBUMIN [2]: 3.67 G/DL
ALKALINE PHOSPHATASE [2]: 316 u/L
ASPARTATE AMINOTRANSFERASE [2]: 119.67 u/L
BLOOD UREA NITROGEN [2]: 13.67 mg/dL
CARBON DIOXIDE [2]: 23.67 mmol/L
CHLORIDE [2]: 103.67 MEQ/L
CHOLESTEROL [2]: 57.33 mg/dL
CREATINE PHOSPHOKINASE [2]: 1102 u/L
CREATININE [2]: 0.21 mg/dL
GLUCOSE [2]: 195 mg/dL
LACTATE DEHYDROGENASE [2]: 227 u/L
LIPASE [2]: 8.67 u/L
PHOSPHORUS [2]: 11.03 mg/dL
POTASSIUM [2]: 4.81 MEQ/L
SODIUM [2]: 144.03 MEQ/L
TOTAL BILIRUBIN [2]: 0.1 mg/dL
TOTAL PROTEIN [2]: 5.2 G/DL
URIC ACID [2]: 1.47 mg/dL
ABSOLUTE BASOPHIL [3]: 0 CELLS/uL
ABSOLUTE EOSINOPHIL [3]: 0 CELLS/uL
ABSOLUTE LYMPHOCYTE [3]: 11532 CELLS/uL
ABSOLUTE MONOCYTE [3]: 384.67 CELLS/uL
ABSOLUTE SEGMENTED NEUTROPHIL [3]: 2350 CELLS/uL
BASOPHIL [3]: 0%
EOSINOPHIL [3]: 0%
ERYTHROCYTE COUNT [3]: 6.72 x10E6/uL
HEMATOCRIT [3]: 41.1%
HEMOGLOBIN [3]: 16.37 G/DL
LEUKOCYTE COUNT [3]: 14.27 x10E3/uL
LYMPHOCYTE [3]: 79.67%
MEAN CORPUSCULAR HEMOGLOBIN [3]: 24.4 pg
MEAN CORPUSCULAR HEMOGLOBIN CONCENTRATION [3]: 39.83 G/DL
MEAN CORPUSCULAR VOLUME [3]: 61.3 fL
MONOCYTE [3]: 3%
NEUTROPHIL [3]: 17.33%
NUCLEATED RED BLOOD CELLS [3]: 0 /100WBC
PLATELET COUNT [3]: 1272.67 x10E3/uL
ALANINE AMINOTRANSFERASE [3]: 120.67 u/L
ALBUMIN [3]: 3.9 G/DL
ALKALINE PHOSPHATASE [3]: 248 u/L
ASPARTATE AMINOTRANSFERASE [3]: 112.33 u/L
BLOOD UREA NITROGEN [3]: 16.33 mg/dL
CARBON DIOXIDE [3]: 28 mmol/L
CHLORIDE [3]: 105.67 MEQ/L
CHOLESTEROL [3]: 47 mg/dL
CREATINE PHOSPHOKINASE [3]: 523 u/L
CREATININE [3]: 0.22 mg/dL
GLUCOSE [3]: 151 mg/dL
LACTATE DEHYDROGENASE [3]: 262.67 u/L
LIPASE [3]: 8 u/L
PHOSPHORUS [3]: 10.77 mg/dL
POTASSIUM [3]: 4.79 MEQ/L
SODIUM [3]: 145.73 MEQ/L
TOTAL BILIRUBIN [3]: 0.13 mg/dL
TOTAL PROTEIN [3]: 5.13 G/DL
URIC ACID [3]: 1.23 mg/dL
